According to paper PMC3626250, “Effects of Borneol on Pharmacokinetics and Tissue Distribution of Notoginsenoside R1 and Ginsenosides Rg1 and Re in Panax notoginseng in Rabbits” (Journal of Analytical Methods in Chemistry, 2013):
Like-named read-outs stand apart in the source and are kept apart here. Marks after values point to notes of the source that are not given here.

What was measured:
[1] = Pharmacokinetics study in rabbits after oral Panax notoginseng extract with or without Borneol (plasma, SPE-HPLC-MS); type: in vivo, New Zealand rabbits; settings: for half-life: read-out: t 1/2β; for AUC(0-inf) / AUC(0-t): po
Method: Liquid chromatography was carried out on an Agilent 1100 HPLC system with an auto sampler, a quaternary pump and a vacuum degasser (Waldoboro, Frankfurt, Germany). Operations were controlled by Agilent Chemstation 4.2 software (Littleforts, Philadelphia, USA). Separations were achieved on a reversed-phase HPLC column (Zorbax SB-C18 150 × 2.1 mm, 5.0 μm particle size). A solution of acetonitrile and water (V : V, 20 : 80) with 0.1% (V : V) ammonium formate was used as the mobile phase. The flow rate was set at 0.3 mL·min^−1 and the column temperature was 25°C. Under these conditions, NGR1, GRg1, and GRe in plasma samples were separated efficiently without any interferences.
MS^n detection was performed on an Agilent SL trap MS system (Waldoboro, Frankfurt, Germany). The ion source-dependent (electrospray ionization) conditions were the same for all analyses with a spraying voltage of −4500 V in the negative ion mode. The pressure of the nebulizing gas (nitrogen) was set at 35 p.s.i. The flow rate of the drying gas (nitrogen) was set at 7.0 L·min^−1 with the temperature of 325°C. The collision gas (He) for the MS^n mode at trap was set at flow of 4 (instrument unit). The voltage of the capillary was set at 4000 V, and its end plate offset was −500 V. Scan range was from 500 to 1500 m/z.
Frozen plasma and tissue samples were thawed in a water bath at 37°C and were then vortexed followed by centrifuging at 5000 r·min^−1 for 5 min. An aliquot of 1.0 mL of the supernatant from each sample was loaded onto C18 Bond Elute Solid phase extraction (SPE) cartridges (1000 mg, 1 cc reservoir, Varian, Harbor City, CA, USA) pretreated with 2.0 mL hexane, isopropanol, methanol, and water, sequentially. The SPE cartridges were then washed with 1.0 mL water, 20% methanol/water solution, 40% methanol/water solution, and 60% methanol/water solution, sequentially. Finally, analytes were eluted twice with 1.0 mL of 70% methanol/water solution. The eluant was evaporated to dryness under nitrogen. The residues were then reconstituted in 1.0 mL mobile phase. An aliquot of 10 μL was injected into the LC-MS system.
Eighteen rabbits were randomly divided into three groups of 6 subjects and were orally given 3.0 mL·kg^−1 normal saline, 3.0 mL·kg^−1 Panax notoginseng extract, and 3.0 mL·kg^−1 Panax notoginseng extract combined with Borneol, respectively. Plasma samples were collected in heparinized tubes from the central ear artery at 0.0, 5.0, 10.0, 20.0, 30.0, 45.0, 60.0, 75.0, 90.0, 120.0, 180.0, 300.0 and 480.0 min after dose. After each sampling, the same volume of 0.9% saline solution was injected from the ear vein to compensate the loss of blood. The plasma obtained was frozen at −70°C for storage and was processed prior to analysis with the proposed method as described in Section 2.6.
Statistical analysis of the biological data was performed using the Student's t-test. The drug analysis system 2.0 (DAS 2.0, T.C.M., Shanghai, China) was used to calculate the pharmacokinetic parameters, such as the area under curve (AUC), the maximum plasma concentration (C max), the time needed to reach the maximum plasma concentration (t max) and the half-life of absorption, and distribution and elimination (t 1/2Ka, t 1/2α, t 1/2β).

Caco-2 cells = test: MTT cytotoxicity assay toward Caco-2 cells; type: cell-based; settings: chosen for transport study
Method: The Caco-2 cells were cultured in Dulbecco's modified Eagle's medium (DMEM) supplemented with 20% foetal bovine serum, 1% nonessential amino acids and penicillin-streptomycin, at 37°C in an atmosphere with a relative humidity of 95% and a CO2 flow of 5%. Medium was replaced every 2-3 days. When the cell monolayer reached 80% confluence, the cells were detached with a solution of 0.02% EDTA and 0.25% trypsin. The vinblastine-selected Caco-2 cells were cultivated in the presence of 10 nM vinblastine to induce P-glycoprotein (P-gp) expression. The culture medium was changed to a fresh medium without vinblastine 24 h before experiments, and the cells were used between passages 25 and 46. Prior to the transport study, cytotoxicity of NGR1, GRg1, GRe, and Borneol toward Caco-2 cells was determined using MTT assays. Noncytotoxic concentrations of 500 μM NGR1, GRg1, GRe, and 200 μM Borneol (dissolved in DMSO) were chosen for transport study.

[2] = New Zealand, rabbit, plasma, oral 3.0 mL·kg^−1 Panax notoginseng extract
[3] = New Zealand, rabbit, plasma, oral 3.0 mL·kg^−1 Panax notoginseng extract combined with Borneol
[4] = New Zealand, rabbit, plasma, oral 3.0 mL·kg^−1 Panax notoginseng extract combined with Borneol, read-out: CL/F
[5] = New Zealand, rabbit, plasma, oral 3.0 mL·kg^−1 Panax notoginseng extract, read-out: CL/F
[6] = oral 3.0 mL·kg^−1 Panax notoginseng extract
[7] = oral 3.0 mL·kg^−1 Panax notoginseng extract combined with Borneol

| SMILES | K 10 [1, 6] | K 12 [1, 6] | K 21 [1, 6] | K a [1, 6] | T lag [1, 6] | V/F [1, 6] | t 1/2Ka [1, 6] | t 1/2α [1, 6] | α [1, 6] | β [1, 6] | K 10 [1, 7] | K 12 [1, 7] | K 21 [1, 7] | K a [1, 7] | T lag [1, 7] | V/F [1, 7] | t 1/2Ka [1, 7] | t 1/2α [1, 7] | α [1, 7] | β [1, 7] | further results |
| --- | --- | --- | --- | --- | --- | --- | --- | --- | --- | --- | --- | --- | --- | --- | --- | --- | --- | --- | --- | --- | --- |
| CC(C)=CCC[C@](C)(O[C@@H]1O[C@H](CO)[C@@H](O)[C@H](O)[C@H]1O)[C@H]1CC[C@]2(C)[C@@H]1[C@H](O)C[C@@H]1[C@@]3(C)CC[C@H](O)C(C)(C)[C@@H]3[C@@H](O[C@@H]3O[C@H](CO)[C@@H](O)[C@H](O)[C@H]3O[C@@H]3O[C@@H](C)[C@H](O)[C@@H](O)[C@H]3O)C[C@]12C [GRe, ginsenoside Re] | 0.007 ± 0.003 min⁻¹ | 0.012 ± 0.004 min⁻¹ | 0.011 ± 0.005 min⁻¹ | 0.025 ± 0.004 min⁻¹ | 0 ± 0 min | 20.0 ± 4.7 L/kg | 27.7 ± 3.7 min | 35.0 ± 1.9 min | 0.020 ± 0.004 min⁻¹ | 0.010 ± 0.002 min⁻¹ | 0.005 ± 0.001 min⁻¹ | 0.022 ± 0.005** min^−1 | 0.011 ± 0.003 min⁻¹ | 0.034 ± 0.003** min^−1 | 0.61 ± 0.47 min | 31.1 ± 6.9 L/kg | 20.3 ± 4.2 min | 25.2 ± 2.4 min | 0.027 ± 0.008 min⁻¹ | 0.010 ± 0.001 min⁻¹ | Cmax [1, 2]: 1920 ± 220 ng/mL; Tmax [1, 2]: 45 min; Cmax [1, 3]: 3040 ± 240 ng/mL; Tmax [1, 3]: 45 min; CL/F [1, 4]: 143 ± 54 mL/min/kg; half-life [1, 3]: 69.3 ± 15.2 min; CL/F [1, 5]: 150 ± 30 mL/min/kg; half-life [1, 2]: 69.3 ± 5.8 min; AUC(0-inf) [1, 2]: 8910 ng·h/mL; AUC(0-t) [1, 2]: 7080 ng·h/mL; AUC(0-inf) [1, 3]: 23300 ng·h/mL; AUC(0-t) [1, 3]: 8750 ng·h/mL; Noncytotoxic concentration (Caco-2 cells): 500 µM |
| CC(C)=CCC[C@](C)(O[C@@H]1O[C@H](CO)[C@@H](O)[C@H](O)[C@H]1O)[C@H]1CC[C@]2(C)[C@@H]1[C@H](O)C[C@@H]1[C@@]3(C)CC[C@H](O)C(C)(C)[C@@H]3[C@@H](O[C@@H]3O[C@H](CO)[C@@H](O)[C@H](O)[C@H]3O)C[C@]12C [GRg1, ginsenoside Rg1] | 0.005 ± 0.001 min⁻¹ | 0.011 ± 0.003 min⁻¹ | 0.012 ± 0.003 min⁻¹ | 0.039 ± 0.004 min⁻¹ | 0 ± 0 min | 24.5 ± 4.5 L/kg | 17.8 ± 2.4 min | 38.5 ± 2.5 min | 0.018 ± 0.005 min⁻¹ | 0.010 ± 0.007 min⁻¹ | 0.003 ± 0.00 min⁻¹ | 0.025 ± 0.005** min^−1 | 0.013 ± 0.001 min⁻¹ | 0.051 ± 0.010* min^−1 | 1.25 ± 0.34 min | 35.9 ± 8.7 L/kg | 13.5 ± 4.6 min | 22.3 ± 3.1 min | 0.031 ± 0.011 min⁻¹ | 0.010 ± 0.001 min⁻¹ | Cmax [1, 2]: 2360 ± 150 ng/mL; Tmax [1, 2]: 30 min; Cmax [1, 3]: 2870 ± 340 ng/mL; Tmax [1, 3]: 30 min; CL/F [1, 4]: 119 ± 40 mL/min/kg; half-life [1, 3]: 69.3 ± 10.7 min; CL/F [1, 5]: 123 ± 67 mL/min/kg; half-life [1, 2]: 69.3 ± 12 min; AUC(0-inf) [1, 2]: 10900 ng·h/mL; AUC(0-t) [1, 2]: 8250 ng·h/mL; AUC(0-inf) [1, 3]: 27900 ng·h/mL; AUC(0-t) [1, 3]: 9090 ng·h/mL; Noncytotoxic concentration (Caco-2 cells): 500 µM |
| CC(C)=CCC[C@](C)(O[C@@H]1O[C@H](CO)[C@@H](O)[C@H](O)[C@H]1O)[C@H]1CC[C@]2(C)[C@@H]1[C@H](O)C[C@@H]1[C@@]3(C)CC[C@H](O)C(C)(C)[C@@H]3[C@@H](O[C@@H]3O[C@H](CO)[C@@H](O)[C@H](O)[C@H]3O[C@@H]3OC[C@@H](O)[C@H](O)[C@H]3O)C[C@]12C [NGR1, notoginsenoside R1] | 0.018 ± 0.005 min⁻¹ | 0.000 ± 0.000 min⁻¹ | 0.014 ± 0.007 min⁻¹ | 0.060 ± 0.004 min⁻¹ | 2.38 ± 0.49 min | 27.3 ± 8.6 L/kg | 11.6 ± 2.4 min | 38.5 ± 4.5 min | 0.018 ± 0.008 min⁻¹ | 0.014 ± 0.003 min⁻¹ | 0.009 ± 0.002* min^−1 | 0.015 ± 0.005** min^−1 | 0.011 ± 0.002 min⁻¹ | 0.037 ± 0.005** min^−1 | 1.04 ± 0.21 min | 58.8 ± 6.9 L/kg | 18.8 ± 3.1 min | 28.4 ± 3.2 min | 0.024 ± 0.005 min⁻¹ | 0.010 ± 0.003* min^−1 | AUC0–t [1, 6]: 162.1 ± 42.7 mg/L/min; AUC0–∞ [1, 6]: 164.0 ± 51.8 mg/L/min; C max [1, 6]: 2.12 ± 0.46 mg/L; CL/F [1, 6]: 488 ± 91 mL/min/kg; T max [1, 6]: 45.0 ± 9.8 min; t 1/2β [1, 6]: 47.9 ± 8.1 min; AUC0–t [1, 7]: 306.3 ± 82.9 mg/L/min; AUC0–∞ [1, 7]: 395.3 ± 101.4 mg/L/min; C max [1, 7]: 1.62 ± 0.30 mg/L; CL/F [1, 7]: 506 ± 27 mL/min/kg; T max [1, 7]: 30.0 ± 8.0 min; t 1/2β [1, 7]: 69.3 ± 5.2 min; Noncytotoxic concentration (Caco-2 cells): 500 µM |
